Measured values from US10093973B2, “Polymerase compositions and methods” (LIFE TECHNOLOGIES CORPORATION, priority 2009, dated 2018).

Experiments:
Type in all cases: biochemical
[1] = test system: ωdN4P and extendible AF546 primer:template duplex; test: Stopped-flow tpol measurement of Example 8; conditions: modified versus reference polymerase, ωdN4P 14 μM
Protocol: In this example, the tpol values of an exemplary modified polymerase comprising the amino acid of SEQ ID NO: 8 and was measured and compared to the tpol value of an exemplary reference polymerase comprising the amino acid sequence of SEQ ID NO: 20. These kinetic parameters were evaluated using a stopped-flow assay wherein a mixture comprising an extendible dye-labeled primer:template duplex and test polymerase was mixed with a solution comprising terminally-labeled nucleotide tetraphosphates or terminally-labeled nucleotide hexaphosphates. These terminally-labeled nucleotides comprise terminal-phosphate-labeled nucleotides having an alkyl linker with a functional amine group attached to the dye. The fluorescence of the resulting mixture was monitored over time. Unless noted otherwise, all concentrations refer to the initial concentrations prior to mixing. […]
Each primer-template duplex (200 nM) was preincubated with test polymerase (660 nM) and to form an E.DNA binary complex. This binary complex was mixed with the cognate omega-labeled nucleoside tetraphosphate (ωdN4P; 14 μM) in a stopped-flow experiment, and the fluorescence at both 546 nm and 647 nm was monitored following mixing. The averaged stopped-flow fluorescence traces were fitted with the double exponential function of Equation (2) to extrapolate the tpol value of the test polymerase: […]

[2] = test system: ωdN4P and non-extendible AF546 primer:template duplex; test: Stopped-flow t−1 measurement of Example 7; conditions: modified versus reference polymerase, ωdN4P 14 μM
Protocol: In this example, the t−1 values of an exemplary modified polymerase comprising the amino acid of SEQ ID NO: 8 and an exemplary reference polymerase comprising the amino acid sequence of SEQ ID NO: 20 were measured and compared. These kinetic parameters were evaluated using an assay system wherein mixtures comprising a test polymerase and a primer:template duplex were mixed in a stopped-flow assay with nucleotides. To measure t−1, the primer used to form the primer:template duplex was a non-extendible primer including a dideoxynucleotide at its 3′ end, and the template was a synthetic DNA template comprising a donor Alexa Fluor 546 moiety at its 5′ end. […] The ternary complex was mixed with unlabeled nucleotides in a stopped-flow experiment, and the resulting fluorescence was monitored as described below. […]
Preincubated mixtures comprising 200 nM of a primer:templex duplex, 660 nM of test polymerase, and 14 μM of ωdN4P were prepared and then mixed with a solution comprising the unlabeled cognate nucleotide (50 μM) in a stopped-flow apparatus. The fluorescence at both 546 nm and 647 nm was monitored following mixing. The averaged stopped-flow fluorescence traces were fitted with a single exponential function having the form of Equation (1) to extrapolate the t−1 value of the test polymerase.

[3] = test system: Invitrogen Low Mass ladder; test: Exonuclease activity assay; conditions: 2, 4 or 10 μg enzyme, 16 hours at 37° C., visual assessment of ladder bands
Protocol: An assay comparing the endogenous exonuclease activity of a reference polymerase, T7 DNA polymerase, with the exonuclease activity of a polymerase comprising the amino acid of SEQ ID NO: 7, was performed. Exonuclease activity was measured by incubating 2, 4 or 10 μg of each enzyme sample with 7.5 μL Invitrogen Low Mass ladder, (10068-013) in a 50 μL reaction containing 10 mM Tris, pH 7.5, 50 mM NaCl and 10 mM MgCl2 for 16 hours at 37° C. in an ABI 9700 PCR machine. The samples were resolved via electrophoresis on a 1.2% E-Gel (Life Technologies). The extent of exonuclease activity was estimated by visually assessing the disappearance of the bands of the Low Mass ladder, as compared to negative control reactions, to which water (“W”) or enzyme storage buffer (“SB”) was added instead of purified polymerase).

[4] = test system: AF647-C6-dG6P and Alexa Fluor 546 dye-labeled primer-template duplex; test: Stopped-flow measurement of tpol (nucleotide incorporation kinetics); parameters: unit not given here; conditions: tpol = 1/kpol; 7 μM AF647-C6-dG6P, 330 nM polymerase, 100 nM template/primer duplex, 2 mM MnCl2
Protocol: In this example, the t−1 and tpol values of a Phi-29 polymerase comprising the amino acid sequence of SEQ ID NO: 1 and a modified B103 polymerase comprising the amino acid sequence of SEQ ID NO: 8 (referred to as “mB103 in the table below) and further including amino acid substitutions at various positions were measured using a stopped-flow procedure. The stopped-flow techniques for measuring tpol (1/kpol) followed the techniques described by MP Roettger (2008 Biochemistry 47:9718-9727; M. Bakhtina 2009 Biochemistry 48:3197-320).
Stopped-Flow Measurements of tpol
The template sequence (SEQ ID NO: 44) further included an Alexa Fluor 546 dye moiety bonded to the 5′ position of the template.
The kinetics of nucleotide incorporation by each polymerase was measured in an Applied Photophysics SX20 stopped-flow spectrometer by monitoring changes in fluorescence from the dye-labeled primer-template duplex complexed to enzyme, following the mixing of the enzyme-DNA complex with dye-labeled nucleotides. These dye-labeled nucleotides comprise terminal-phosphate-labeled nucleotides having an alkyl linker with a functional amine group attached to the dye, and have the general structure shown in FIG. 11. This structure includes a sugar bonded to a hexaphosphate chain at the 5′ carbon position, and to a nucleotide base (denoted as “N”). The terminal phosphate group of the hexaphosphate is linked to a 6-carbon linker, and the other end of the 6-carbon linker is attached to a dye moiety (denoted as “dye”), typically through an amide bond. In this example, the particular dye-labeled nucleotide added was a labeled nucleotide hexaphosphate comprising a guanine base at the N (base) position and an Alexa Fluor 647 (AF647) at the dye position, and is referred to herein as “AF647-C6-dG6P”.
The primer and template were annealed to form a dye-labeled primer-template duplex using standard methods. This duplex was preincubated with polymerase. The mixture included 330 nM recombinant DNA polymerase, 100 nM template/primer duplex in buffer (“reaction buffer”) comprising 50 mM Tris-HCl, pH 7.5, 50 mM NaCl, 4 mM DTT, 0.2% BSA, and 2 mM MnCl2. The dye-labeled nucleotide AF647-C6-dG6P was then added to a final concentration of 7 μM, and the resulting fluorescence was monitored over time.
The averaged (5 traces) stopped-flow fluorescence traces (>1.5 ms) were fitted with a double exponential equation (1) to extrapolate the rates of the nucleotide binding and product release, Fluorescence=A1*e^−k1*t+A2*e^−kpol*t+C (equation 1) where A1 and A2 represent corresponding fluorescence amplitudes, C is an offset constant, and k1 and kpol are the observed rate constants for the fast and slow phases of the fluorescence transition, respectively.

[5] = test system: AF647-C6-dG6P in [enzyme.DNA.nucleotide] ternary complex with dideoxy-primer/template duplex; test: Stopped-flow measurement of t−1 (nucleotide dissociation from ternary complex); parameters: unit not given here; conditions: t−1 = 1/k−1; ternary complex with 7 μM AF647-C6-dG6P chased with 50 μM non-labeled nucleotide, 2 mM MnCl2
Protocol: Stopped-Flow Measurements of t−1
The stopped-flow techniques for measuring t−1 ([…]) followed the techniques described by M. Bakhtina (2009 Biochemistry 48:3197-3208).
The rate of the nucleotide dissociation ([…]) from the ternary complex of [enzyme.DNA.nucleotide] was measured in an Applied Photophysics SX20 stopped-flow spectrometer by monitoring changes […] a duplex Alexa fluor 546 dye-labeled-DNA template following the mixing of the [enzyme.DNA.labeled nucleotide] ternary complex with 50 μM cognate non-labeled deoxynucleoside triphosphate in a buffer containing 50 mM Tris-HCl (pH 7.5), 50 mM NaCl, 4 mM DTT, 0.2% BSA, and 2 mM MnCl2.
The ternary complexes were prepared using: 330 nM polymerase, 100 nM template/primer duplex, and 7 μM terminal phosphate-labeled nucleotides (AF647-C6-dG6P).
The averaged stopped-flow fluorescence traces (>1.5 msec) were fitted with a single exponential equation (2) to extrapolate the rate of the nucleotide dissociation (k−1) from the [enzyme.DNA.nucleotide] ternary complex. Fluorescence=A1*e^−k−1*t+C (equation 2) where A1 represents the corresponding fluorescence amplitude, C is an offset constant, and k−1 and the observed rate constants for the fluorescence transition.

[6] = test system: hairpin-template, test nanoparticle; test: Nanoparticle tolerance assay (primer extension with and without test nanoparticle); conditions: 100 nM polymerase, 100 nM nanoparticle, 23° C.
Protocol: The nanoparticle tolerance of exemplary modified and reference polymerases was measured and compared. The nucleotide incorporation activity of an exemplary modified polymerase comprising the amino acid sequence of SEQ ID NO: 19 and further comprising the amino acid substitution D175A was measured both in the absence and presence of equimolar amounts of a test nanoparticle. The results were compared to those of an exemplary reference Phi-29 polymerase comprising the amino acid sequence of SEQ ID NO: 20.
Primer extension activity was measured using an assay wherein free pyrophosphate released as a result of extension of a primer:template duplex is detected as a fluorescent product. […] The resulting fluorescence emissions were monitored as a function of time using a plate reader (Molecular Devices, SpectraMax M5). Reactions without nucleotides were also monitored as negative controls. Reactions were monitored for 20 minutes or until the samples reached saturation.
Exemplary results are depicted in FIG. 5, which provides a graph of relative fluorescence observed in each sample (RFU, arbitrary units, Y axis) against time (seconds, X axis). […] Primer extension activity was measured as the average slope of the curve obtained by plotting fluorescence (RFU) vs. time (seconds, X axis) between the zero time point and at 5 minutes. […]

| Substance | tpol [4] | t−1 [5] | further results |
| --- | --- | --- | --- |
| SEQ ID NO: 1: exemplary polymerase of the bacteriophage Phi-29 [reference compound] |  |  | estimated tpol values [1]: comparable; estimated t−1 values [2]: comparable |
| SEQ ID NO: 7: B103 polymerase variant with substitutions F383L and D384N |  |  | exonuclease activity [3]: comparable levels of exonuclease activity |
| T7 DNA polymerase: reference polymerase, positive control for exonuclease activity [reference compound] |  |  | exonuclease activity [3]: comparable levels of exonuclease activity |
| mB103 + D507G: modified B103 polymerase of SEQ ID NO: 8 with substitution D507G | 11 | 13 |  |
| mB103 + D507H: modified B103 polymerase of SEQ ID NO: 8 with substitution D507H | 7 | 16 |  |
| mB103 + E371R: modified B103 polymerase of SEQ ID NO: 8 with substitution E371R | 11 | 17 |  |
| mB103 + E371Y: modified B103 polymerase of SEQ ID NO: 8 with substitution E371Y | 11 | 7 |  |
| mB103 + H370R: modified B103 polymerase of SEQ ID NO: 8 with substitution H370R | 17 | 43 |  |
| mB103 + H370Y: modified B103 polymerase of SEQ ID NO: 8 with substitution H370Y | 15 | 12 |  |
| mB103 + K509Y: modified B103 polymerase of SEQ ID NO: 8 with substitution K509Y | 10 | 20 |  |
| reference Phi-29 polymerase: reference Phi-29 polymerase of Example 5; SEQ ID NO: 20 or SEQ ID NO: 1 with N62D [reference compound] |  |  | nanoparticle tolerance [6]: 50%; loss in primer extension activity in the presence of equimolar amounts of the test nanoparticle ([6]; slope zero to 5 minutes): 50% |
